Assay results reported in US10821115B2, “Compounds that inhibit Mcl-1 protein” (priority 2017, dated 2020).
Read-outs that look alike come from different tables or passages of the source.

Columns and labels:
[1] = target: recombinant human Mcl-1 (residues 171-327) / Bim interaction (Homo sapiens (Human), UniProt Q07820); experiment: biochemical; type: binding; settings: read-out: Mcl-1 HTRF IC50
[2] = system: human multiple myeloma cell line, OPM-2; experiment: Cell viability assay (OPM-2 10 FBS), CellTiter-Glo; type: cell-based; settings: Homo sapiens, OPM-2, 16 h
Procedure, shortened: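 Steps: plate cells at 3000/well in 10% FBS growth medium, add serially diluted compound, incubate 16 h at 37 °C with 5% CO2, add detection reagent and read luminescence after 25 min. A 4-parameter logistic model gives IC50.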

[3] = TR-FRET, Mcl-1(171-327) / biotin-Bim (51-76)
[4] = read-out: OPM-2 10% FBS IC50 IP, OPM-2 cells, 10% FBS, 16 h, CellTiter-Glo
[5] = 0.1 nM Mcl-1(171-327), 0.05 nM biotin-Bim (51-76)
[6] = read-out: OPM-2 10% FBS IC50 IP, OPM-2 cells, 10% FBS, 16 h incubation

Sequence of recombinant human Mcl-1 (residues 171-327) / Bim interaction (Q07820 171-327): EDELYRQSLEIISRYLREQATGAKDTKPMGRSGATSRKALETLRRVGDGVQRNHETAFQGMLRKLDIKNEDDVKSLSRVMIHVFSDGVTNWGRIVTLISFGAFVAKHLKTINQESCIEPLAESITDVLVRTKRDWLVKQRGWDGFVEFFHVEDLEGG

COCCN(C)C(=O)C[C@]1(O)/C=C/C[C@H](C)[C@@H](C)S(=O)(=O)NC(=O)c2ccc3c(c2)N(C[C@@H]2CC[C@H]21)C[C@@]1(CCCc2cc(Cl)ccc21)CO3 [Example 100277, 2-((1S,3′R,6′R,7′S,8′E,11′S,12′R)-6-chloro-7′-hydroxy-11′,12′-dimethyl-13′,13′-dioxido-15′-oxo-3,4-dihydro-2H-spiro[naphthalene-1,22′-[20]oxa[13]thia[1,14]diazatetracyclo [14.7.2.0~3,6~.0~19,24~]pentacosa[8,16,18,24]tetraen]-7′-yl)-N-(2-methoxyethyl)-N-methylacetamide]
IC50 [1, 3]: 0.266 nM
IC50 [2, 4]: 448 nM

CON(C)C[C@]1(OC)/C=C/C[C@H](C)[C@@H](C)S(=O)(=O)NC(=O)c2ccc3c(c2)N(C[C@@H]2CC[C@H]21)C[C@@]1(CCCc2cc(Cl)ccc21)CO3 [Example 212, (1S,3′R,6′R,7′S,8′E,11′S,12′R)-6-chloro-7′-methoxy-7′-((methoxy(methyl)amino)methyl)-11′,12′-dimethyl-3,4-dihydro-2H,15′H-spiro[naphthalene-1,22′-[20]oxa[13]thia[1,14]diazatetracyclo [14.7.2.0~3,6~.0~19,24~]pentacosa[8,16,18,24]tetraen]-15′-one 13′,13′-dioxide]
IC50 [1, 5]: 0.122 nM
IC50 [2, 6]: 307 nM

C[C@@H]1[C@@H](C)C/C=C/[C@@](O)(COS(C)(=O)=O)[C@@H]2CC[C@H]2CN2C[C@@]3(CCCc4cc(Cl)ccc43)COc3ccc(cc32)C(=O)NS1(=O)=O [Example 100335, ((1S,3′R,6′R,7′S,8′E,11′S,12′R)-6-chloro-7′-hydroxy-11′,12′-dimethyl-13′,13′-dioxido-15′-oxo-3,4-dihydro-2H-spiro[naphthalene-1,22′-[20]oxa[13]thia[1,14]diazatetracyclo [14.7.2.0~3,6~.0~19,24~]pentacosa[8,16,18,24]tetraen]-7′-yl)methyl methanesulfonate]
IC50 [1, 3]: 0.319 nM
IC50 [2, 4]: 165 nM

COCCN1CCN(C[C@]2(OC)/C=C/C[C@H](C)[C@@H](C)S(=O)(=O)NC(=O)c3ccc4c(c3)N(C[C@@H]3CC[C@H]32)C[C@@]2(CCCc3cc(Cl)ccc32)CO4)CC1=O [Example 55, (1S,3′R,6′R,7′S,8′E,11′S,12′R)-6-chloro-7′-methoxy-7′-((4-(2-methoxyethyl)-3-oxo-1-piperazinyl)methyl)-11′,12′-dimethyl-3,4-dihydro-2H,15′H-spiro[naphthalene-1,22′-[20]oxa[13]thia[1,14]diazatetracyclo [14.7.2.0~3,6~.0~19,24~]pentacosa[8,16,18,24]tetraen]-15′-one 13′,13′-dioxide]
IC50 [1, 5]: 0.162 nM
IC50 [2, 6]: 80 nM

C[C@@H]1[C@@H](C)CCC[C@@]2(C[C@H](C)C(=O)O2)[C@@H]2CC[C@H]2CN2C[C@@]3(CCCc4cc(Cl)ccc43)COc3ccc(cc32)C(=O)NS1(=O)=O (stereo in doubt) [Example 100129]
IC50 [1, 3]: 2.4 nM
IC50 [2, 4]: 4870 nM

CO[C@@H](C[C@]1(OC)/C=C/C[C@H](C)[C@@H](C)S(=O)(=O)NC(=O)c2ccc3c(c2)N(C[C@@H]2CC[C@H]21)C[C@@]1(CCCc2cc(Cl)ccc21)CO3)C1CC1 [Example 100462, (1S,3′R,6′R,7′S,8′E,11′S,12′R)-6-chloro-7′-((2S)-2-cyclopropyl-2-methoxyethyl)-7′-methoxy-11′,12′-dimethyl-3,4-dihydro-2H,15′H-spiro[naphthalene-1,22′-[20]oxa[13]thia[1,14]diazatetracyclo [14.7.2.0~3,6~.0~19,24~]pentacosa[8,16,18,24]tetraen]-15′-one 13′,13′-dioxide]
IC50 [1, 3]: 0.304 nM
IC50 [2, 4]: 652 nM

CO[C@@]1(Cc2ncc(C)o2)/C=C/C[C@H](C)[C@@H](C)S(=O)(=O)NC(=O)c2ccc3c(c2)N(C[C@@H]2CC[C@H]21)C[C@@]1(CCCc2cc(Cl)ccc21)CO3 [Example 100529, (1S,3′R,6′R,7′S,8′E,11′S,12′R)-6-chloro-7′-methoxy-11′,12′-dimethyl-7′-((5-methyl-1,3-oxazol-2-yl)methyl)-3,4-dihydro-2H,15′H-spiro[naphthalene-1,22′-[20]oxa[13]thia[1,14]diazatetracyclo [14.7.2.0~3,6~.0~19,24~]pentacosa[8,16,18,24]tetraen]-15′-one 13′,13′-dioxide]
IC50 [1, 3]: 0.287 nM
IC50 [2, 4]: 245 nM

CO[C@@]1(C[C@@H](O)C(C)C)/C=C/C[C@H](C)[C@@H](C)S(=O)(=O)NC(=O)c2ccc3c(c2)N(C[C@@H]2CC[C@H]21)C[C@@]1(CCCc2cc(Cl)ccc21)CO3 (racemic) [Example 100326, (1S,3′R,6′R,7′S,8′E,11′S,12′R)-6-chloro-7′-((2R)-2-hydroxy-3-methylbutyl)-7′-methoxy-11′,12′-dimethyl-3,4-dihydro-2H,15′H-spiro[naphthalene-1,22′-[20]oxa[13]thia[1,14]diazatetracyclo [14.7.2.0~3,6~.0~19,24~]pentacosa[8,16,18,24]tetraen]-15′-one 13′,13′-dioxide]
IC50 [1, 3]: 0.615 nM
IC50 [2, 4]: 334 nM

COCCOC[C@@]1(O)CCC[C@H](C)[C@@H](C)S(=O)(=O)NC(=O)c2ccc3c(c2)N(C[C@@H]2CC[C@H]21)C[C@@]1(CCCc2cc(Cl)ccc21)CO3 [Example 100193, (1S,3′R,6′R,7′R,11′S,12′R)-6-chloro-7′-hydroxy-7′-((2-methoxyethoxy)methyl)-11′,12′-dimethyl-3,4-dihydro-2H,15′H-spiro[naphthalene-1,22′-[20]oxa[13]thia[1,14]diazatetracyclo [14.7.2.0~3,6~.0~19,24~]pentacosa[16,18,24]trien]-15′-one 13′,13′-dioxide]
IC50 [1, 3]: 0.856 nM
IC50 [2, 4]: 1300 nM

CC(C)CO[C@]1(C=O)/C=C/C[C@H](C)[C@@H](C)S(=O)(=O)NC(=O)c2ccc3c(c2)N(C[C@@H]2CC[C@H]21)C[C@@]1(CCCc2cc(Cl)ccc21)CO3 [Example 100603, (1S,3′R,6′R,7′R,8′E,11′S,12′R)-6-chloro-11′,12′-dimethyl-7′-(2-methylpropoxy)-15′-oxo-3,4-dihydro-2H-spiro[naphthalene-1,22′-[20]oxa[13]thia[1,14]diazatetracyclo [14.7.2.0~3,6~.0~19,24~]pentacosa[8,16,18,24]tetraene]-7′-carbaldehyde 13′,13′-dioxide]
IC50 [1, 3]: 0.651 nM
IC50 [2, 4]: 1570 nM

CCN1CCN(C[C@@]2(OC)/C=C/C[C@H](C)[C@@H](C)S(=O)(=O)NC(=O)c3ccc4c(c3)N(C[C@@H]3CC[C@H]32)C[C@@]2(CCCc3cc(Cl)ccc32)CO4)CC1 [Example 88, (1S,3′R,6′R,7′R,8′E,11′S,12′R)-6-chloro-7′-((4-ethyl-1-piperazinyl)methyl)-7′-methoxy-11′,12′-dimethyl-3,4-dihydro-2H,15′H-spiro[naphthalene-1,22′-[20]oxa[13]thia[1,14]diazatetracyclo [14.7.2.0~3,6~.0~19,24~]pentacosa[8,16,18,24]tetraen]-15′-one 13′,13′-dioxide]
IC50 [1, 5]: 0.139 nM
IC50 [2, 6]: 74 nM
